Literature values in patent US20100284933A1, “Biomarkers of Multiple Sclerosis” (Biogen Idec MA Inc., priority 2006, published 2010).

Key:
CBRs = details: background statement
PBRs = PBRs (Homo sapiens, UniProt P30536); details: background statement
Sequence of PBRs (P30536 whole entry): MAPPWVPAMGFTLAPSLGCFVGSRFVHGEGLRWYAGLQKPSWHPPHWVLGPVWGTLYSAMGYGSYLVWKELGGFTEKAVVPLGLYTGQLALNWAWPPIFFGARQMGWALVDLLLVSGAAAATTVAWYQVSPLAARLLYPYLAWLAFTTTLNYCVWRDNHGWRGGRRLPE

Row | SMILES | affinity for CBRs (CBRs) | affinity for PBRs (PBRs)
1 | CCC(C)N(C)C(=O)c1cc2ccccc2c(-c2ccccc2Cl)n1 (stereo not shown) [PK 11195] | negligible affinity | high affinity
2 | CN1C(=O)CN=C(c2ccc(Cl)cc2)c2cc(Cl)ccc21 [Ro 5-4864, 4′-chlorodiazepam] | negligible affinity | high affinity
